Drawing on patent publication US20240376090A1, “ISOXAZOLE DERIVATIVES AS MODULATORS OF THE 5-HT2A SEROTONIN RECEPTOR USEFUL FOR THE TREATMENT OF DISORDERED RELATED THERETO” (Arena Pharmaceuticals, Inc., priority 2020, published 2024), this text covers Ki for 26 compounds.

By Ki is commonly meant a dissociation constant, usually derived from enzyme kinetics or from competition with a known ligand.

The structures appear in SMILES notation.

5-HT2A receptor, sequence (P28223 whole entry): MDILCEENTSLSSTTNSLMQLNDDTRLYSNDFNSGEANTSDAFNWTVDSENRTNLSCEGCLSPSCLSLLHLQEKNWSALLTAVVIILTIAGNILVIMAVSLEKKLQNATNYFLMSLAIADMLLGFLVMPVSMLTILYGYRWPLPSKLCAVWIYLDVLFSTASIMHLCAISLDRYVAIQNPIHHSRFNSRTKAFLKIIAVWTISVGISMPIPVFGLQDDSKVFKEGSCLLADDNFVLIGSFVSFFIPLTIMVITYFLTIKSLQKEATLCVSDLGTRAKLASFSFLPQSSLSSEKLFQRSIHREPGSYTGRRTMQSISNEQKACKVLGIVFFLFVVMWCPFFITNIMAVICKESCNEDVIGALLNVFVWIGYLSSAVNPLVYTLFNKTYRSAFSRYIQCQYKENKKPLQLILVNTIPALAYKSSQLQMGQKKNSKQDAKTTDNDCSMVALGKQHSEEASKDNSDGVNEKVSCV

This test addresses 5-HT2A receptor (Homo sapiens (Human), UniProt P28223). Briefly: Radioligand binding assay ([3H]5-HT competition), 5-HT2A. The following applies: [3H]5-HT radioligand, membranes of HEK293 cells expressing recombinant 5-HT2A; Ki from IC50 by Cheng-Prusoff; read-out: 5-HT2A serotonin binding Ki value. As for the experimental part:
Competition binding experiments consisted of addition of 5 μL of serially diluted test compound, 50 μL of radioligand stock diluted in Assay Buffer (20 mM HEPES, pH 7.4, 10 mM MgCl2), and 145 μL of diluted membrane expressing the receptor of interest to 96-well microtiter plates, which were then incubated for one hour at room temperature. Assay incubations were terminated by rapid filtration through Perkin Elmer GF/C filtration plates under vacuum pressure using a 96-well Packard filtration apparatus, followed by washing the filter plates several times with ice cold Assay Buffer. Plates were then dried at 45° C. for a minimum of four hours. Finally, 25 μL of BetaScint scintillation cocktail was added to each well and the plates were counted in a Packard TopCount scintillation counter. In each competition study, test compounds were assayed at 10 concentrations with three replicates at each test concentration. Dose-response curves were constructed to determine IC50 values and these were converted to corresponding Ki values using the Cheng-Prusoff equation.
Regarding `Cc1noc(C)c1-c1cc(NC(=O)C2CC2C2CC2)ccc1OCCN1CCCC1` (centres unmarked) [Compound 100, N-(3-(3,5-dimethylisoxazol-4-yl)-4-(2-(pyrrolidin-1-yl)ethoxy)phenyl)-[1,1′-bi(cyclopropane)]-2-carboxamide], the Ki amounted to 2.89 nM. As for `CCOCCC(=O)Nc1ccc(OCCN2CCCC2)c(-c2c(C)noc2C)c1` [Compound 101, N-(3-(3,5-dimethylisoxazol-4-yl)-4-(2-(pyrrolidin-1-yl)ethoxy)phenyl)-3-ethoxypropanamide], the Ki came to 78.3 nM. In the case of `Cc1noc(C)c1-c1cc(NC(=O)c2ccncc2)ccc1OCCN1CCCC1` [Compound 102, N-(3-(3,5-dimethylisoxazol-4-yl)-4-(2-(pyrrolidin-1-yl)ethoxy)phenyl)isonicotinamide] it was 119 nM. For `Cc1noc(C)c1-c1cc(NC(=O)c2ccncc2F)ccc1OCCN1CCCC1` [Compound 103, N-(3-(3,5-dimethylisoxazol-4-yl)-4-(2-(pyrrolidin-1-yl)ethoxy)phenyl)-3-fluoroisonicotinamide] the value was 50.8 nM; for `Cc1noc(C)c1-c1cc(NC(=O)c2cc(F)ccn2)ccc1OCCN1CCCC1` [Compound 104, N-(3-(3,5-dimethylisoxazol-4-yl)-4-(2-(pyrrolidin-1-yl)ethoxy)phenyl)-4-fluoropicolinamide], 19.6 nM.

As for `Cc1noc(C)c1-c1cc(NC(=O)c2cc(Cl)ccn2)ccc1OCCN1CCCC1` [Compound 105, 4-chloro-N-(3-(3,5-dimethylisoxazol-4-yl)-4-(2-(pyrrolidin-1-yl)ethoxy)phenyl)picolinamide], the Ki amounted to 3.94 nM. In the case of `Cc1noc(C)c1-c1cc(NC(=O)[C@@H]2C[C@H]2F)ccc1OCCN1CCCC1` [Compound 106, (1S,2R)—N-[3-(3,5-dimethylisoxazol-4-yl)-4-(2-pyrrolidin-1-ylethoxy)phenyl]-2-fluoro-cyclopropanecarboxamide] it was 1.13 nM. In the case of `Cc1noc(C)c1-c1cc(NC(=O)[C@H]2C[C@H]2F)ccc1OCCN1CCCC1` [Compound 107, (1R,2R)—N-(3-(3,5-dimethylisoxazol-4-yl)-4-(2-(pyrrolidin-1-yl)ethoxy)phenyl)-2-fluorocyclopropane-1-carboxamide] it was 15.1 nM; in that of `Cc1noc(C)c1-c1cc(NC(=O)[C@@H]2C[C@@H]2F)ccc1OCCN1CCCC1` [Compound 108, (1S,2S)—N-(3-(3,5-dimethylisoxazol-4-yl)-4-(2-(pyrrolidin-1-yl)ethoxy)phenyl)-2-fluorocyclopropane-1-carboxamide], 6.21 nM.

On to `Cc1ncsc1C(=O)Nc1ccc(OCCN2CCCC2)c(-c2c(C)noc2C)c1` [Compound 109, N-(3-(3,5-dimethylisoxazol-4-yl)-4-(2-(pyrrolidin-1-yl)ethoxy)phenyl)-4-methylthiazole-5-carboxamide], for which the Ki was 3.78 nM. In the case of `Cc1nc(C)c(C(=O)Nc2ccc(OCCN3CCCC3)c(-c3c(C)noc3C)c2)s1` [Compound 110, N-(3-(3,5-dimethylisoxazol-4-yl)-4-(2-(pyrrolidin-1-yl)ethoxy)phenyl)-2,4-dimethylthiazole-5-carboxamide] it was 110 nM; in that of `Cc1cnoc1C(=O)Nc1ccc(OCCN2CCCC2)c(-c2c(C)noc2C)c1` [Compound 111, N-(3-(3,5-dimethylisoxazol-4-yl)-4-(2-(pyrrolidin-1-yl)ethoxy)phenyl)-4-methylisoxazole-5-carboxamide], 23.8 nM; in that of `Cc1ncoc1C(=O)Nc1ccc(OCCN2CCCC2)c(-c2c(C)noc2C)c1` [Compound 112, N-(3-(3,5-dimethylisoxazol-4-yl)-4-(2-(pyrrolidin-1-yl)ethoxy)phenyl)-4-methyloxazole-5-carboxamide], 14.1 nM. In the case of `CCOC1CC1C(=O)Nc1ccc(OCCN2CCCC2)c(-c2c(C)noc2C)c1` (centres unmarked) [Compound 115, N-(3-(3,5-dimethylisoxazol-4-yl)-4-(2-(pyrrolidin-1-yl)ethoxy)phenyl)-2-ethoxycyclopropane-1-carboxamide], the Ki was 8.52 nM. In the case of `Cc1noc(C)c1-c1cc(NC(=O)c2ccnn2C)ccc1OCCN1CCCC1` [Compound 116, N-[3-(3,5-dimethylisoxazol-4-yl)-4-(2-pyrrolidin-1-ylethoxy)phenyl]-2-methyl-pyrazole-3-carboxamide], the inhibitory constant (Ki) was 6.15 nM. In the case of `Cc1noc(C)c1-c1cc(NC(=O)c2ccnn2C)ccc1OCCN1CCC1` [Compound 118, N-(4-(2-(azetidin-1-yl)ethoxy)-3-(3,5-dimethylisoxazol-4-yl)phenyl)-1-methyl-1H-pyrazole-5-carboxamide] it was 18.9 nM; in that of `Cc1noc(C)c1-c1cc(NC(=O)c2ccccc2)ccc1OCCN1CCC1` [Compound 120, N-(4-(2-(azetidin-1-yl)ethoxy)-3-(3,5-dimethylisoxazol-4-yl)phenyl)benzamide], 9.41 nM.

For the compound `Cc1noc(C)c1-c1cc(NC(=O)Cc2ccccc2)ccc1OCCN1CCC1` [Compound 123, N-(4-(2-(azetidin-1-yl)ethoxy)-3-(3,5-dimethylisoxazol-4-yl)phenyl)-2-phenylacetamide], the Ki came out at 11.8 nM.

Regarding `COc1cccc(CC(=O)Nc2ccc(OCCN3CCC3)c(-c3c(C)noc3C)c2)c1` [Compound 124, N-(4-(2-(azetidin-1-yl)ethoxy)-3-(3,5-dimethylisoxazol-4-yl)phenyl)-2-(3-methoxyphenyl)acetamide], the inhibition constant (Ki) amounted to 10.6 nM. In the case of `COc1ccc(CC(=O)Nc2ccc(OCCN3CCC3)c(-c3c(C)noc3C)c2)cc1` [Compound 126, N-(4-(2-(azetidin-1-yl)ethoxy)-3-(3,5-dimethylisoxazol-4-yl)phenyl)-2-(4-methoxyphenyl) acetamide] it was 5.28 nM; in that of `Cc1ncsc1CC(=O)Nc1ccc(OCCN2CCC2)c(-c2c(C)noc2C)c1` [Compound 127, N-(4-(2-(azetidin-1-yl)ethoxy)-3-(3,5-dimethylisoxazol-4-yl)phenyl)-2-(4-methylthiazol-5-yl)acetamide], 8.51 nM; in that of `Cc1noc(C)c1-c1cc(NC(=O)Cc2cncc(F)c2)ccc1OCCN1CCC1` [Compound 128, N-(4-(2-(azetidin-1-yl)ethoxy)-3-(3,5-dimethylisoxazol-4-yl)phenyl)-2-(5-fluoropyridin-3-yl)acetamide], 14.6 nM. For `Cc1noc(C)c1-c1cc(NC(=O)c2c(F)cnn2C)ccc1OCCN1CCC1` [Compound 130, N-(4-(2-(azetidin-1-yl)ethoxy)-3-(3,5-dimethylisoxazol-4-yl)phenyl)-4-fluoro-1-methyl-1H-pyrazole-5-carboxamide] the value was 12.8 nM.

Take `CCOC1CC1C(=O)Nc1ccc(OCCN2CCC2)c(-c2c(C)noc2C)c1` (centres unmarked) [Compound 131, N-(4-(2-(azetidin-1-yl)ethoxy)-3-(3,5-dimethylisoxazol-4-yl)phenyl)-2-ethoxycyclopropane-1-carboxamide]: the Ki worked out at 77.7 nM.

Regarding `Cc1noc(C)c1-c1cc(NC(=O)C2CC2)ccc1OC1CN(C)C1` [Compound 132, N-[3-(3,5-dimethylisoxazol-4-yl)-4-(1-methylazetidin-3-yl)oxy-phenyl]cyclopropanecarboxamide], the Ki came to 46.1 nM. Consider `CCN1CC(Oc2ccc(NC(=O)C3CC3)cc2-c2c(C)noc2C)C1` [Compound 133, N-(3-(3,5-dimethylisoxazol-4-yl)-4-((1-ethylazetidin-3-yl)oxy)phenyl)cyclopropanecarboxamide], for which the inhibition constant Ki was 51.3 nM.
